Converted amounts (≈) assume the structure as drawn. “Also recorded” adds a separate entry of the source. Counter-ions that a name gives are not always drawn. Like-named read-outs stand apart in the source and are kept apart here.
Experiments:
[1] = test system: yeasts; details: cited from earlier work
[2] = test system: Trichomonas vaginalis strain TVL; assay: Activity against Trichomonas vaginalis, two-fold tube dilution method; format: cell-based; details: Trichomonas vaginalis, 48 hours at 37° C.
Protocol: Trichomonas vaginalis (applicant's internal code TVL) was grown on Trichomonas Culture Medium Base (Merck) plus 10% heat treated horse serum. Inoculum: approximately 10^5 organisms/ml. Incubation: 48 hours at 37° C.

[3] = test system: Candida albicans ATCC 10231; assay: Activity against Candida strains, two-fold dilution method; format: cell-based; details: Candida albicans
Protocol: (§1) This set of experiments included also one strain each of two other Candida species, Candida tropicalis and Candida kruzei. The M.I.C. were determined by the two-fold dilution method in buffered (0.01 M phosphate buffer, pH 7.4) yeast nitrogen base medium (Difco) supplemented with 1.5 g/liter asparagine in microtiter trays. Inocula were approximately 10^4 colony forming units/ml. Incubation was for 20 h at 30° C. Purpuromycin was dissolved in DMSO and added to the cultures as above.

[4] = test system: Candida albicans SKF 2270; assay: as above; format: cell-based; details: Candida albicans
Protocol: as §1

[5] = test system: Gardnerella vaginalis ATCC 14018 and other 11 clinical isolates; assay: Activity against Gardnerella vaginalis, standard two fold dilution methods; details: for Number of strains with MIC of 8 mcg/ml: MIC 8 mcg/ml
Protocol: The strains were grown on Casman medium (Difco) plus 5% (v/v) whole rabbit blood and 0.15 (v/v) lysed rabbit blood. Inoculum size: approximately 10^4 colony forming units per spot. Incubation in an anaerobic hood: 48 hours at 37° C.

[6] = test system: Candida tropicalis L 243; assay: Activity against Candida strains, two-fold dilution method; format: cell-based; details: L243, 20 h at 30° C., pH 7.4
Protocol: as §1, with “above. The following TABLE IV reports the MIC values for the whole set of strains.” for “above.”

[7] = test system: Candida albicans (19 clinical isolates); assay: as above; format: cell-based; details: 20 h at 30° C., pH 7.4
Protocol: as §1, with “above. The following TABLE IV reports the MIC values for the whole set of strains.” for “above.”

[8] = test system: Candida kruzei L 244; assay: as above; format: cell-based; details: L244, 20 h at 30° C., pH 7.4
Protocol: as §1, with “above. The following TABLE IV reports the MIC values for the whole set of strains.” for “above.”

[9] = test system: Neisseria gonorrhoeae L 997; assay: In vitro activity, M.I.C., microbroth dilution; format: cell-based; details: salts calculated as weight of purpuromycin; 37° C., 48 h, 5% CO2
Protocol: (§2) MIC were determined by the microbroth dilution test. Bacteria were grown at 37° C., fungi at 30° C. Incubation was for 20 h, except for Propionibacterium acnes, Bacteroides fragilis, Neisseria gonorrhoeae, Haemophilus influenzae (48 h) and Trichophyton mentagrophytes (72h) Neisseria gonorrhoeae and Haemophilus influenzae were incubated in a CO2 -enriched (5%) atmosphere; Propionibacterium acnes and Bacteroides fragilis in an anaerobic hood. Media used were: Oxoid Iso-sensitest broth (Staphylococci, Enterococcus faecalis and Escherichia coli); Difco Todd-Hewitt broth (streptococci); Difco GC base broth with 1% BBL IsoVitaleX (Neisseria gonorrhoeae); Difco Brain-Heart Infusion broth with 1% Difco supplement C (Haemophilus influenzae); Difco Wilkins-Chalgren broth (Propionibacterium acnes and Bacteroides fragilis); Difco Yeast Nitrogen Base broth with 1.5 g/1 asparagine (Candida albicans); Difco Sabouraud-dextrose broth (Trichophyton mentagrophytes). Inocula were approximately 10^4 CFU/ml.

[10] = test system: Propionibacterium acnes ATCC 6919; assay: In vitro activity, M.I.C., microbroth dilution; format: cell-based; details: salts calculated as weight of purpuromycin; 37° C., 48 h, anaerobic hood
Protocol: as §2

[11] = test system: Strep. pneumoniae L44; assay: In vitro activity, M.I.C., microbroth dilution; format: cell-based; details: salts calculated as weight of purpuromycin; 37° C., 20 h
Protocol: as §2

[12] = test system: Strep. pyogenes L49; assay: In vitro activity, M.I.C., microbroth dilution; format: cell-based; details: salts calculated as weight of purpuromycin; 37° C., 20 h
Protocol: as §2

[13] = test system: Enterococcus faecalis ATCC 7080; assay: In vitro activity, M.I.C., microbroth dilution; format: cell-based; details: salts calculated as weight of purpuromycin; 37° C., 20 h
Protocol: as §2

[14] = test system: Escherichia coli SKF 12140; assay: In vitro activity, M.I.C., microbroth dilution; format: cell-based; details: salts calculated as weight of purpuromycin; 37° C., 20 h
Protocol: as §2

[15] = test system: Haemophilus influenzae ATCC 19418; assay: In vitro activity, M.I.C., microbroth dilution; format: cell-based; details: salts calculated as weight of purpuromycin; 37° C., 48 h, 5% CO2
Protocol: as §2

[16] = test system: Staph. aureus Tour L 165; assay: In vitro activity, M.I.C., microbroth dilution; format: cell-based; details: salts calculated as weight of purpuromycin; 37° C., 20 h
Protocol: as §2

[17] = test system: Staph. haemolyticus L602; assay: In vitro activity, M.I.C., microbroth dilution; format: cell-based; details: salts calculated as weight of purpuromycin; 37° C., 20 h
Protocol: as §2

[18] = test system: Trichophyton mentagrophytes SKF 17410; assay: In vitro activity, M.I.C., microbroth dilution; format: cell-based; details: salts calculated as weight of purpuromycin; 30° C., 72 h
Protocol: as §2

[19] = test system: Bacteroides fragilis ATCC 23745; assay: In vitro activity, M.I.C., microbroth dilution; format: cell-based; details: salts calculated as weight of purpuromycin; 37° C., 48 h, anaerobic hood
Protocol: as §2

[20] = test system: Staph. epidermidis ATCC 12228; assay: In vitro activity, M.I.C., microbroth dilution; format: cell-based; details: salts calculated as weight of purpuromycin; 37° C., 20 h
Protocol: as §2

[21] = test system: Candida albicans SKF 2270; assay: In vitro activity, M.I.C., microbroth dilution; format: cell-based; details: salts calculated as weight of purpuromycin; 30° C., 20 h
Protocol: as §2

[22] = test system: Trichomonas vaginalis TVL; assay: In vitro activity, M.I.C., microtiter trays; format: cell-based; details: salts calculated as weight of purpuromycin; 48 h, anaerobic hood, 37° C.
Protocol: MIC were performed in flat-bottomed microtiter trays, with 0.2 ml per well. The medium was TYM modified basal medium (Merck) plus 10% horse serum (treated to inactivate complement). The inoculum was ca. 10^5 organisms/ml; incubation was for 48 h in an anaerobic hood (37° C.).The microtiter wells were read using an inverted light microscope. The MIC was taken as the lowest concentration at which no live (mobile) protozoa were seen.

[23] = Stability; format: physicochemical
[24] = test system: Gardnerella vaginalis; assay: In vitro activity, M.I.C., agar dilution; format: cell-based; details: salts calculated as weight of purpuromycin; ATCC 14018 and 10 clinical isolates, all same M.I.C.; inoculum ca. 10^5 CFU, 48 h
Protocol: **The assay was carried out on strain ATCC 14018 and 10 clinical isolates
Incubation was for 48 h in an anaerobic hood (37° C.); inoculum ca. 10^5 CFU.

[25] = test system: Gram-positive and Gram-negative bacteria and fungi; details: reported in UK Patent 1455128 and U.S. Pat. No. 3,914,257; cited from earlier work
[26] = Solubility and pH of solution; format: physicochemical
[27] = Biological activity (general statement); details: formed by hydrolysis of the carbomethoxy group of purpuromycin
[28] = conjugate acid of the second basic group; cited from earlier work

**Q.** For Cc1ncc([N+](=O)[O-])n1CCO [Metronidazole], which activity against yeasts [1] is on record?
**A.** The activity against yeasts was “not active against yeasts”.

**Q.** What about the MIC ([2]; read-out: MIC) of the same compound?
**A.** Its MIC is 0.25 µg/mL (≈ 1.46 µM).

**Q.** And the MIC ([3]; ATCC10231, 20 h, comparative tests, antibacterial agents, read-out: M.I.C.)?
**A.** The MIC was > 128 µg/mL.

**Q.** What about the MIC ([4]; SKF2270, 20 h, comparative tests, antibacterial agents, read-out: M.I.C.) of the same compound?
**A.** Its MIC is > 128 µg/mL.

**Q.** What about the MIC ([5]; Gardnerella vaginalis, read-out: MIC on resistant strains) of the same compound?
**A.** The MIC was > 32 µg/mL.

**Q.** What about the “Number of strains with MIC of 4 mcg/ml” value ([5]; MIC 4 mcg/ml, 12 strains tested) of the same compound?
**A.** The value was 1 strains.

**Q.** And the “Number of strains with MIC of 8 mcg/ml” value ([5]; 12 strains tested)?
**A.** The value was 3 strains.

**Q.** And the “Number of strains with MIC of 16 mcg/ml” value ([5]; MIC 16 mcg/ml, 12 strains tested)?
**A.** Its value is 4 strains.

**Q.** What about the “Number of strains with MIC of 128 mcg/ml” value ([5]; MIC 128 mcg/ml, 12 strains tested) of the same compound?
**A.** The value was 3 strains.

**Q.** Which MIC [6] does the source give for COC(=O)c1cc2cc3c(c(O)c2c(=O)o1)OC1(Cc2c(O)c4c(c(O)c2O1)C(=O)C(OC)=CC4=O)CC3O (stereo not drawn) [Purpuromycin] here?
**A.** Its MIC is 2 µg/mL (≈ 3.71 µM).

**Q.** What about the MIC [7] of the same compound?
**A.** Its MIC is 1 to 4 µg/mL (≈ 1.86 to 7.43 µM).

**Q.** What about the MIC [8] of the same compound?
**A.** The MIC was 4 µg/mL (≈ 7.43 µM).

**Q.** What about the M.I.C. [9] of the same compound?
**A.** The M.I.C. was 0.06 mg/L.

**Q.** What about the M.I.C. [10] of the same compound?
**A.** Its M.I.C. is 0.06 mg/L.

**Q.** What about the M.I.C. [11] of the same compound?
**A.** Its M.I.C. is 0.06 mg/L.

**Q.** And the M.I.C. [12]?
**A.** Its M.I.C. is 0.06 mg/L.

**Q.** What about the M.I.C. [13] of the same compound?
**A.** Its M.I.C. is 0.06 mg/L.

**Q.** What about the M.I.C. [14] of the same compound?
**A.** Its M.I.C. is 8 mg/L.

**Q.** And the M.I.C. [15]?
**A.** The M.I.C. was 0.06 mg/L.

**Q.** What about the M.I.C. [16] of the same compound?
**A.** Its M.I.C. is 0.06 mg/L.

**Q.** What about the M.I.C. [17] of the same compound?
**A.** Its M.I.C. is 0.06 mg/L.

**Q.** And the M.I.C. [18]?
**A.** The M.I.C. was 1 mg/L.

**Q.** And the M.I.C. [19]?
**A.** The M.I.C. was 0.13 mg/L.

**Q.** What about the M.I.C. [20] of the same compound?
**A.** The M.I.C. was 0.06 mg/L.

**Q.** And the M.I.C. [21]?
**A.** The M.I.C. was 1 mg/L.

**Q.** And the M.I.C. [22]?
**A.** Its M.I.C. is 4 mg/L.

**Q.** And the MIC ([2]; dissolved in DMSO, read-out: minimal inhibitory concentration (M.I.C.))?
**A.** Its MIC is 4 µg/mL (≈ 7.43 µM).

**Q.** What about the MIC ([2]; read-out: MIC) of the same compound?
**A.** The MIC was 4 µg/mL (≈ 7.43 µM).

**Q.** What about the “stability (in words)” value [23] of the same compound?
**A.** Its value is “hydrolysis of the carbomethoxy group; also recorded: undergoes a degradation process”.

**Q.** What about the M.I.C. [24] of the same compound?
**A.** The M.I.C. was 16 mg/L.

**Q.** And the MIC ([3]; ATCC10231, 20 h at 30° C., pH 7.4, read-out: MIC)?
**A.** Its MIC is 0.5 µg/mL (≈ 0.929 µM).

**Q.** What about the MIC ([4]; SKF2270, 20 h at 30° C., pH 7.4, read-out: MIC) of the same compound?
**A.** Its MIC is 1 µg/mL (≈ 1.86 µM).

**Q.** And the “in vitro antimicrobial activity” value [25]?
**A.** The value was “active in vitro against both Gram-positive and Gram-negative bacteria and fungi”.

**Q.** And the solubility ([26]; buffer, pH 8.5, aqueous buffer, pH 8.5 buffer, read-out: solubility in water)?
**A.** The solubility was 22 µg/mL (≈ 40.9 µM).

**Q.** What about the “solubility (in words)” value ([26]; solvent) of the same compound?
**A.** Its value is “practically insoluble in water and in lower alkanols; also recorded: poorly soluble in most organic solvents”.

**Q.** And the “Number of strains with MIC of 8 mcg/ml” value ([5]; 12 strains tested)?
**A.** Its value is 12 strains.

**Q.** With COC1=CC(=O)c2c(O)c3c(c(O)c2C1=O)OC1(C3)CC(O)c2cc3cc(C(=O)O)oc(=O)c3c(O)c2O1 (stereo not drawn) [carboxylic acid derivative] as the compound, how does the “activity of degradation product” value [27] read?
**A.** Its value is “almost inactive”.

**Q.** Which “stability (in words)” value [23] does the source give for COC(=O)c1cc2cc3c(c(O)c2c(=O)o1)OC1(Cc2c(O)c4c(c(O)c2O1)C(=O)C(OC)=CC4=O)CC3O (stereo not drawn) [arginine salt] here?
**A.** Its value is “not sufficiently stable”.

**Q.** For N=C(N)NCCC[C@H](N)C(=O)O [arginine], which pK3 value [28] is on record?
**A.** Its pK3 value is “higher than 13”.
